Laboratory results from ChEMBL document CHEMBL1140601, “Quantitative structure-activity relationship (QSAR) of tacrine derivatives against acetylcholinesterase (AChE) activity using variable selections” (Bioorg Med Chem Lett, 2007).

Biological target: Acetylcholinesterase (Homo sapiens) (UniProt P22303)
Sequence (P22303 whole entry): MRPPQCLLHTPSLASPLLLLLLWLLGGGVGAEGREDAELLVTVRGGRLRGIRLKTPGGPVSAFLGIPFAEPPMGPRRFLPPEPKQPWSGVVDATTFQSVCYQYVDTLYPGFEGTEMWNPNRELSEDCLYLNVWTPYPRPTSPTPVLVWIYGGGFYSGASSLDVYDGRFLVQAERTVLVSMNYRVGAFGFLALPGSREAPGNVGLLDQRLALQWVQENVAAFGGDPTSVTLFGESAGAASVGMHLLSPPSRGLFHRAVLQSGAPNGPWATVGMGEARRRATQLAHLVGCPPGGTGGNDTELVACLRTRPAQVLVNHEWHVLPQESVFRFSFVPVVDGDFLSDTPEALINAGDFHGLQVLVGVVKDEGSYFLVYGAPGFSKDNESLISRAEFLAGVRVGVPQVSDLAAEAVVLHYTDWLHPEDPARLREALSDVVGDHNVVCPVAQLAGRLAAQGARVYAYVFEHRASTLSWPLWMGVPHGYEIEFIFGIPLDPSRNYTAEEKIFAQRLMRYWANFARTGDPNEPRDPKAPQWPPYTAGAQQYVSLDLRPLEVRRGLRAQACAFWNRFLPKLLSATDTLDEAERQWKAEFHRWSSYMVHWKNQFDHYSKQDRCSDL
Description: Inhibition of AchE relative to tacrine

Question: `CC1=CC2Cc3nc4cc(Cl)ccc4c(NCCCCCCNc4c5c(nc6ccccc46)CCCC5)c3C(C1)C2` (stereo unspecified) was tested. Which logRA did it give?
Answer: 2.61

Question: For `CNc1c2c(nc3ccccc13)-c1ccccc1C2`, which logRA is on record?
Answer: -0.716

Question: Which logRA does the source give for `CCOC(=O)c1c(C)nc2nc3c(c(N)c2c1-c1cccc([N+](=O)[O-])c1)CCCC3` here?
Answer: -0.713

Question: With `CC1=CC2Cc3nc4ccccc4c(NCCCCCCCCNc4c5c(nc6ccccc46)CCCC5)c3C(C1)C2` (stereo unspecified) as the compound, how does the logRA read?
Answer: 2.4

Question: Which logRA does the source give for `COc1ccc2c(c1)-c1nc3ccccc3c(N)c1C2` here?
Answer: -1.24

Question: With `CCOC(=O)c1c(C)nc2nc3c(c(N)c2c1-c1ccc(OC)c(OC)c1)CCCCC3` as the compound, how does the logRA read?
Answer: -1.55

Question: How did the logRA turn out when `Cc1cccc2c1Cc1c-2nc2ccccc2c1N` was run?
Answer: -1.19

Question: For `Cc1nc2nc3c(c(N)c2c(-c2ccccc2)c1C(=O)OC(C)C)CCCC3`, which logRA is on record?
Answer: -0.824

Question: Which logRA does the source give for `CCOC(=O)C1=C(C)Oc2nc3c(c(N)c2C1c1ccccc1OC)CCC3` (stereo unspecified) here?
Answer: -2.12

Question: With `CCOC(=O)C1=C(C)Oc2nc3c(c(N)c2C1c1ccccc1)CCCC3` (stereo unspecified) as the compound, how does the logRA read?
Answer: -1.08

Question: How did the logRA turn out when `Fc1ccc2c(NCCCCCCCNc3c4c(nc5ccccc35)CCC4)c3c(nc2c1)CCC3` was run?
Answer: 0.647

Question: Which logRA does the source give for `CCOC(=O)c1c(C)nc2nc3c(c(N)c2c1-c1ccc(F)cc1)CCCC3` here?
Answer: -0.596

Question: For `Nc1ccc2nc3c(c(N)c2c1)Cc1ccccc1-3`, which logRA is on record?
Answer: -1.37

Question: Which logRA does the source give for `Fc1ccc2c(NCCCCCCCCNc3c4c(nc5cc(F)ccc35)CCCC4)c3c(nc2c1)CCCC3` here?
Answer: 2.68

Question: Which logRA does the source give for `Clc1ccc2c(NCCCCCCNc3c4c(nc5cc(Cl)ccc35)CCCC4)c3c(nc2c1)CCCC3` here?
Answer: 2.74

Question: Which logRA does the source give for `CCOC(=O)c1c(C)nc2nc3c(c(N)c2c1-c1ccccc1)CCCCC3` here?
Answer: -0.768

Question: With `Nc1c2c(nc3ccccc13)-c1ccccc1C2` as the compound, how does the logRA read?
Answer: -0.435

Question: Which logRA does the source give for `CC1=CC2Cc3nc4cc(Cl)ccc4c(NCCCCCCCCNc4c5c(nc6cc(Cl)ccc46)CCCC5)c3C(C1)C2` (stereo unspecified) here?
Answer: 2.71

Question: `Nc1c2c(nc3ccccc13)-c1ccc(Cl)cc1C2` was tested. Which logRA did it give?
Answer: -1.33

Question: `CCOC(=O)c1c(C)nc2nc3c(c(N)c2c1-c1ccc(Cl)cc1)CCCC3` was tested. Which logRA did it give?
Answer: -0.859

Question: Which logRA does the source give for `Nc1c2c(nc3ccccc13)C[S+]([O-])CC2O` (stereo unspecified) here?
Answer: -0.745

Question: `CCOC(=O)c1c(C)nc2nc3c(c(N)c2c1-c1ccc(OC)cc1)CCCCC3` was tested. Which logRA did it give?
Answer: -1.02

Question: For `c1ccc2c(NCCCCCCCNc3c4c(nc5ccccc35)CCCC4)c3c(nc2c1)CCCC3`, which logRA is on record?
Answer: 2.41

Question: With `CCOC(=O)C1=C(C)Oc2nc3c(c(N)c2C1c1ccc(OC)c(OC)c1)CCCC3` (stereo unspecified) as the compound, how does the logRA read?
Answer: -1.41

Question: Which logRA does the source give for `Nc1c2c(nc3cc(Cl)ccc13)-c1ccccc1C2` here?
Answer: -1.42

Question: How did the logRA turn out when `CC1=CC2Cc3nc4cc(Cl)ccc4c(NCCCCCCCCNc4c5c(nc6ccccc46)CCCC5)c3C(C1)C2` (stereo unspecified) was run?
Answer: 2.79

Question: How did the logRA turn out when `CCOC(=O)C1=C(C)Oc2nc3c(c(N)c2C1c1ccccc1OC)CCCCC3` (stereo unspecified) was run?
Answer: -2.07

Question: With `Fc1ccc2c(NCCCCCCNc3c4c(nc5cc(F)ccc35)CCCC4)c3c(nc2c1)CCCC3` as the compound, how does the logRA read?
Answer: 2.57

Question: With `CCOC(=O)c1c(C)nc2nc3c(c(N)c2c1-c1ccccc1)CCC3` as the compound, how does the logRA read?
Answer: -1.96

Question: With `CCOC(=O)C1=C(C)Oc2nc3c(c(N)c2C1c1ccncc1)CCC3` (stereo unspecified) as the compound, how does the logRA read?
Answer: -1.67

Question: Which logRA does the source give for `COc1cccc2c1Cc1c-2nc2ccccc2c1N` here?
Answer: -0.806

Question: Which logRA does the source give for `CCOC(=O)c1c(C)nc2nc3c(c(N)c2c1-c1ccc(F)cc1)CCCCC3` here?
Answer: -1.48

Question: How did the logRA turn out when `CCOC(=O)C1=C(C)Oc2nc3c(c(N)c2C1c1ccc(Cl)cc1)CCCC3` (stereo unspecified) was run?
Answer: -1.17

Question: Which logRA does the source give for `CCOC(=O)C1=C(C)Oc2nc3c(c(N)c2C1c1cccc([N+](=O)[O-])c1)CCCC3` (stereo unspecified) here?
Answer: -1.16

Question: How did the logRA turn out when `Nc1c2c(nc3ccccc13)CSCC2=O` was run?
Answer: -0.745

Question: `CCOC(=O)c1c(C)nc2nc3c(c(N)c2c1-c1ccc(OC)c(OC)c1)CCCC3` was tested. Which logRA did it give?
Answer: -0.859

Question: How did the logRA turn out when `Cc1ccc2c(c1)-c1nc3ccccc3c(N)c1C2` was run?
Answer: -1.26

Question: For `CCOC(=O)c1c(C)nc2nc3c(c(N)c2c1-c1cccs1)CCCCC3`, which logRA is on record?
Answer: -2.01

Question: For `CCOC(=O)C1=C(C)Oc2nc3c(c(N)c2C1c1ccncc1)CCCCC3` (stereo unspecified), which logRA is on record?
Answer: -1.79

Question: `CC1=CC2Cc3nc4cc(Cl)ccc4c(NCCCN(C)CCCNc4c5c(nc6ccccc46)CCCC5)c3C(C1)C2` (stereo unspecified) was tested. Which logRA did it give?
Answer: 2.81

Question: With `CCOC(=O)c1c(C)nc2nc3c(c(N)c2c1-c1cccn1C(C)=O)CCCC3` as the compound, how does the logRA read?
Answer: -1.08

Question: Which logRA does the source give for `CC1=CC2Cc3nc4cc(Cl)ccc4c(NCCCN(C)CCCNc4c5c(nc6cc(Cl)ccc46)CCCC5)c3C(C1)C2` (stereo unspecified) here?
Answer: 2.85

Question: For `CCOC(=O)C1=C(C)Oc2nc3c(c(N)c2C1c1ccc(C)cc1)CCCC3` (stereo unspecified), which logRA is on record?
Answer: -1.15

Question: With `CC1=CC2Cc3nc4cc(Cl)ccc4c(NCCCCCCCNc4c5c(nc6cc(Cl)ccc46)CCCC5)c3C(C1)C2` (stereo unspecified) as the compound, how does the logRA read?
Answer: 2.79

Question: For `CCOC(=O)C1=C(C)Oc2nc3c(c(N)c2C1c1ccccc1)CCC3` (stereo unspecified), which logRA is on record?
Answer: -1.48

Question: `CCOC(=O)c1c(C)nc2nc3c(c(N)c2c1-c1ccncc1)CCCC3` was tested. Which logRA did it give?
Answer: -1

Question: With `CCOC(=O)c1c(C)nc2nc3c(c(N)c2c1-c1ccc(OC)cc1)CCC3` as the compound, how does the logRA read?
Answer: -2.02

Question: How did the logRA turn out when `CCOC(=O)C1=C(C)Oc2nc3c(c(N)c2C1c1cccc(OC)c1)CCCCC3` (stereo unspecified) was run?
Answer: -1.86

Question: How did the logRA turn out when `CCOC(=O)C1=C(C)Oc2nc3c(c(N)c2C1c1cccnc1)CCCC3` (stereo unspecified) was run?
Answer: -1.71

Question: With `CCOC(=O)c1c(C)nc2nc3c(c(N)c2c1-c1cccc(OC)c1)CCCC3` as the compound, how does the logRA read?
Answer: -0.824

Question: `CCOC(=O)C1=C(C)Oc2nc3c(c(N)c2C1c1ccccc1OC)CCCC3` (stereo unspecified) was tested. Which logRA did it give?
Answer: -1.63

Question: How did the logRA turn out when `CCOC(=O)c1c(C)nc2nc3c(c(N)c2c1-c1ccncc1)CCCCC3` was run?
Answer: -1.56

Question: Which logRA does the source give for `CCOC(=O)C1=C(C)Oc2nc3c(c(N)c2C1c1ccc(C#N)cc1)CCCC3` (stereo unspecified) here?
Answer: -1.43

Question: How did the logRA turn out when `Nc1c2c(nc3ccccc13)CSCC2O` (stereo unspecified) was run?
Answer: -0.852

Question: How did the logRA turn out when `CCOC(=O)c1c(C)nc2nc3c(c(N)c2c1-c1cccs1)CCC3` was run?
Answer: -2.3

Question: Which logRA does the source give for `CCOC(=O)C1=C(C)Oc2nc3c(c(N)c2C1c1ccc(OC)c(OC)c1)CCC3` (stereo unspecified) here?
Answer: -2.18

Question: `CCOC(=O)c1c(C)nc2nc3c(c(N)c2c1-c1ccccc1)CCCC3` was tested. Which logRA did it give?
Answer: -0.801

Question: `COc1ccc2c(c1)Cc1c-2nc2ccccc2c1N` was tested. Which logRA did it give?
Answer: -1.42

Question: With `c1ccc2c(NCCCCCCCCNc3c4c(nc5ccccc35)CCCC4)c3c(nc2c1)CCCC3` as the compound, how does the logRA read?
Answer: 2.32

Question: `CCOC(=O)c1c(C)nc2nc3c(c(N)c2c1-c1ccc(OC)cc1)CCCC3` was tested. Which logRA did it give?
Answer: -1.84

Question: Which logRA does the source give for `CCOC(=O)C1=C(C)Oc2nc3c(c(N)c2C1c1ccc(OC)cc1)CCCC3` (stereo unspecified) here?
Answer: -0.825

Question: For `CCOC(=O)C1=C(C)Oc2nc3c(c(N)c2C1c1ccncc1)CCCC3` (stereo unspecified), which logRA is on record?
Answer: -1.33

Question: How did the logRA turn out when `CC1=CC2Cc3nc4cc(Cl)ccc4c(NCCCCCCNc4c5c(nc6cc(Cl)ccc46)CCCC5)c3C(C1)C2` (stereo unspecified) was run?
Answer: 2.66

Question: With `c1ccc2c(NCCCCCCNc3c4c(nc5ccccc35)CCCC4)c3c(nc2c1)CCCC3` as the compound, how does the logRA read?
Answer: 2.38

Question: How did the logRA turn out when `Nc1c2c(nc3cc(F)ccc13)-c1ccccc1C2` was run?
Answer: -0.681

Question: With `c1ccc2c(NCCCCCCNc3c4c(nc5ccccc35)CCCCC4)c3c(nc2c1)CCCCC3` as the compound, how does the logRA read?
Answer: 2.19

Question: For `O=C(CNc1c2c(nc3ccccc13)CCCC2)NCCC1CCN(c2ccccc2)CC1`, which logRA is on record?
Answer: 1.57

Question: With `CCOC(=O)C1=C(C)Oc2nc3c(c(N)c2C1c1ccc(OC)c(OC)c1)CCCCC3` (stereo unspecified) as the compound, how does the logRA read?
Answer: -2.26

Question: With `CC1=CC2Cc3nc4cc(Cl)ccc4c(NCCCCCCCNc4c5c(nc6ccccc46)CCCC5)c3C(C1)C2` (stereo unspecified) as the compound, how does the logRA read?
Answer: 2.78

Question: `CCOC(=O)c1c(C)nc2nc3c(c(N)c2c1-c1cccs1)CCCC3` was tested. Which logRA did it give?
Answer: -2.25

Question: Which logRA does the source give for `CCOC(=O)c1c(C)nc2nc3c(c(N)c2c1-c1ccncc1)CCC3` here?
Answer: -1.77
